The text below walks through data of patent US20110040170A1, “ENDOSCOPIC IMAGING PHOTODYNAMIC THERAPY SYSTEM AND METHODS OF USE” (YEDA RESEARCH AND DEVELOPMENT CO., LTD., priority 2008, published 2011).

“And” between values parts separate entries of the source, which are not always exact repeats. Identical values can stand only once. “Also recorded” adds a separate entry of the source.

One data set concerns uterine horn. Particulars: cited from earlier work.
Another data set has as its system extrauterine pregnancy. Particulars: selected patients (mass less than 4 cm, no fetal heart beat, low β-hCG); cited from earlier work.
The test system of a further data set is uterus. The experiment in a line: Histological analysis of post-PDT uteri for long-term damage. The format is in vivo, Wistar rats. On the procedure: (viii) Histology. Following animal sacrifice, the abdomen was surgically opened, the uterus was tied-off at the cervix, removed and placed in Carnoy's fixative (6:3:1 ethanol, chloroform and acetic acid, by vol.), or Tris-buffered Zn fixative (2.8 mM calcium acetate, 22.8 mM zinc acetate, and 36.7 mM zinc chloride in 0.1M Tris buffer, pH 7.4) for 48-72 h. Fixed tissue samples were placed in 70% ethanol, paraffin embedded and slides were prepared. Slides were stained with hematoxylin and eosin (H&E) Immunohistochemical staining of the specific cell markers was done using the following antibodies: sheep anti-von Willebrand Factor (vWF)] (Serotec, Oxford, UK), mouse anti-pancytokeratin (clone AE1/AE3, Zymed, San-Francisco, USA) and mouse anti-human smooth muscle actin (SMA) (a SMC marker) (clone 1A4, Serotec, Oxford, UK).
Following verification of the functional integrity of post-PDT rat uteri, histological analysis was conducted in order to identify possible long-term damage resulting from the treatment. For this purpose, uteri in post-PDT and control manipulated rats were examined approximately 10 days after parturition (17-18 days after treatment). The respective uteri were stained by standard H&E (FIGS. 8B and 8F) as well as by anti-SMA antibody (a SMC marker, indicative of uterine wall integrity) (FIGS. 8C and 8G), anti-pan-cytokeratin antibody (an epithelial cell marker, indicative of endometrial integrity and absence of adhesions) (FIGS. 8D and 8H) and for vWF factor (an endothelial cell marker, illustrating blood vessel integrity) (FIGS. 8E and 8I). Uteri featured mild to moderate organizing hemorrhages in the endometrium and mesometrium, typical of post-gravid uteri (uteri after parturition). The only type of lesion found was the presence of a low number of hemosiderin-laden macrophages (siderophages) in the endometrium (where such a presence is normal) and in the mesometrium. This finding (siderophages) was highest in the DC uterus and milder in the post PDT uterus.

Data set [1] relates to feto-placental unit. The experiment in a line: Histological analysis of feto-placental units and adjacent uterus after in utero PDT. In kind it is in vivo, Wistar rats. As to conditions: E16. As to the method:
(iv) In vivo PDT protocol. A pregnant rat (E14) was anesthetized by isoflurane inhalation using the IMPAC6 system (VetEquip Inc., Pleasanton, Calif., USA) and placed on its back; the lower abdomen was shaved, washed with 70% ethanol and draped with sterile gauze. A midline incision (approximately 2 cm in length) in the lower abdomen was performed by cutting the skin and abdominal-muscle layers separately. Using round forceps, the uterus was gently drawn out from the abdominal cavity and placed on the gauze. The exposed uterus was continuously irrigated with sterile 0.9% NaCl solution during the procedure (for layout, see FIGS. 5A, 5B). One embryo was randomly selected for treatment and positioned with the placenta facing up. The laser beam was then directed to the exposed placental pole and the beam positioned for subsequent therapeutic illumination (6 mm light spot diameter) using the built-in visible (630 nm, 3 mW) aiming beam. No shielding of neighboring embryos was required. The photosensitizer PMRDA (50 μg/30 μl sterile saline) was delivered by trans-uterine injection (30G, 0.3 ml, insulin syringe) into the placenta. Following a drug/light time interval (DLTI) of 120 sec, illumination (100 mW/cm^2) was delivered (300 sec) to the placenta in a trans-uterine manner from above, perpendicular to the uterus (FIG. 5A). Upon completion of the PDT protocol, the uterus was eased back into the abdominal cavity. The abdominal facia was sutured using sterile 4-0 braided silk thread and the skin was clipped using 9 mm surgical clips. Anesthesia was discontinued and the rat was placed in a cage and closely monitored for at least 48 h. Animals received analgesia (Oxycod®, 6 ml/l) in their drinking water for at least 48 h. Controls: Dark control (DC): placental administration of photosensitizer without illumination. Light control (LC): placental sham injection of sterile vehicle (saline), followed by illumination with the respective light dose. Untreated control (UN): all untreated fetoplacental units in a treated rat.
(viii) Histology. […]

The conditions of data set [2]: rat.
Excerpt: (vi) Post PDT fertility assessment. Treated rats were allowed to reach parturition and pup weaning (P21). Fertile males were then introduced into the cages and rats were allowed to mate until pregnancy could be verified by daily vaginal smears and palpation. Pregnancy in both uterine horns was verified by magnetic resonance imaging (MRI) and/or by animal sacrifice and macroscopic examination.
Data set [3] deals with feto-placental unit. The experiment in a line: In vivo placental PDT of a single feto-placental unit in the pregnant rat. As to the method:
Materials and Methods (i) Animals. Pregnant 10-week old female Wistar rats (litter sizes of 10±2) (Harlan Laboratories, Rehovot, Israel) were delivered to the lab on embryonic day 7-12 (E7-E12) and allowed acclimatization of at least 48 h. All animal protocols were approved by the Weizmann Institutional Animal Care and Use Committee (IACUC).
(ii) Photosensitizer. Palladium 3^1-oxo-15 -methoxycarbonylmethylrhodobacterio-chlorin-13^1,17^3-di(2-N2-dimethylaminoethyl) amide (PMRDA), a water-soluble positively charged Pd-bacteriochlorophyll derivative disclosed in WO 2005/120573, was either synthesized in the inventor's laboratory by known methods or kindly provided by Steba Laboratories Ltd. (Israel), and used as a photosensitizer. The PMRDA was obtained as powder and kept under Argon (Ar) at −20° C. in the dark. Thereafter it was dissolved in methanol (MeOH) and, following spectrophotometric determination of concentration, was divided into aliquots, dried under Ar and kept at −20° C. in the dark until use.
(iii) Light source. A 1W 755 nm laser (CeramOptec, Bonn, Germany) was used. Light was delivered via a diffuser tipped optic fiber (Medlight S.A., Ecublens, Switzerland).
(iv) In vivo PDT protocol. A pregnant rat (E14) was anesthetized by isoflurane inhalation using the IMPAC6 system (VetEquip Inc., Pleasanton, Calif., USA) and placed on its back; the lower abdomen was shaved, washed with 70% ethanol and draped with sterile gauze. A midline incision (approximately 2 cm in length) in the lower abdomen was performed by cutting the skin and abdominal-muscle layers separately. Using round forceps, the uterus was gently drawn out from the abdominal cavity and placed on the gauze. The exposed uterus was continuously irrigated with sterile 0.9% NaCl solution during the procedure (for layout, see FIGS. 5A, 5B). One embryo was randomly selected for treatment and positioned with the placenta facing up. […] Anesthesia was discontinued and the rat was placed in a cage and closely monitored for at least 48 h. […]

[4] abbreviates: subsequent fertility after 5-ALA PDT.

As to `NCC(=O)CCC(=O)O` [5-ALA, 5-aminolevulinic acid], the “treated animals that did not conceive following PDT” value in the data set with uterine horn (5-ALA administered E10, examined E17) is on record as “one third”. Moreover, in the data set on uterine horn (setting [4]), the “fewer implanted embryos in the treated horn” value is recorded as ~28% and the “treated animals that developed pregnancies in the treated horn subsequently” value was 66.2%. Moreover, the “pregnancy outcome in the treated uterine horn” value with uterine horn (systemic 5-ALA, whole horn illuminated) is “loss of all embryos in the treated uterine horn; also recorded: termination of all pregnancies in the treated horn”.
Regarding `CN(Cc1cnc2nc(N)nc(N)c2n1)c1ccc(C(=O)N[C@@H](CCC(=O)O)C(=O)O)cc1` [methotrexate, Methotrexate], the “success rate of medical therapy of EUP” value with extrauterine pregnancy is reported as 70-95%.
In the case of “Palladium 3^1-oxo-15 -methoxycarbonylmethylrhodobacterio-chlorin-13^1,17^3-di(2-N2-dimethylaminoethyl) amide [PMRDA]”, in the data set with uterus (PMRDA with illumination), the “siderophages in endometrium and mesometrium, post PDT uterus” value was “milder”. Besides, the “siderophages in endometrium and mesometrium, DC uterus” value in the data set with uterus (PMRDA without illumination) was “highest”. Also, the “necrosis / pathological findings in post-PDT uteri” value in the data set on uterus (uteri after parturition, H&E, SMA, pan-cytokeratin, vWF staining) was “No necrotic areas were found; also recorded: no pathological findings”. Besides, the “placental necrosis, share of placental mass involved” value in the data set with feto-placental unit [1] (post-PMRDA-PDT placenta) is “approximately 70%”. Moreover, in the data set on feto-placental unit [1] (post-PMRDA-PDT), the “histological state of the embryo” value is given as “fully necrotic embryo” and the “state of the uterus adjacent to the treated placenta” value is listed as “appeared viable”. In addition, the “fertility following local in vivo placental PDT” value in data set [2] is on record as “fertility of the rats is preserved”. In data set [2] (in vivo), the “ability to conceive after PDT, parturition and re-mating” value is listed as “all six rats pregnant”; the “litter sizes of second pregnancy” value was 6-11; the “parturition of the remaining litter after treatment” value is reported as “All six rats achieved normal parturition”; the “pups delivered at parturition after treatment” value is listed as 6 to 11 pups. For the same compound, in the data set on feto-placental unit [3] (50 μg/30 μl intra-placental injection at E14, DLTI 120 sec, 755 nm 100 mW/cm^2 for 300 sec, assessed E16, 11/14 embryos), the “pregnancy termination (embryo death rate) following PMRDA-PDT” value was ~80% and 78.6%. Moreover, the “embryo mortality rate, dark control (DC)” value in the data set with feto-placental unit [3] (placental administration of photosensitizer without illumination, E14, assessed E16, 3/8 embryos) was determined as 37.5%. Moreover, in the data set on feto-placental unit [3] (rat, in vivo), the “morbidity to the treated pregnant rat” value is recorded as “did not result in noticeable morbidity”.
